The subject of data set [1] is male Sprague-Dawley rats.
The test system of data set [2] is male Sprague-Dawley rats. To be noted: nasal, 2%, 20 uL/nare; vehicle cyclodextrin; urethane-anesthetized rats; FIG. 2. Here is the method: Mean arterial blood pressure was measured using a Digi-Med Blood Pressure Analyzer. The rats were anesthetized with urethane (2 g/kg, IP) and the left carotid artery was cannulated. A baseline blood pressure was recorded then the drug (or vehicle) was administered and blood pressure recorded for 45-60 minutes.

Structures are written as SMILES. Where two headings read alike, the source gives them in different places.

With `COc1ccc(CCN(C)CCCC(C#N)(c2ccc(OC)c(OC)c2)C(C)C)cc1OC` (centres unmarked) [verapamil], the “total distance traveled, drug treated groups compared to vehicle treated group” value in the data set with male Sprague-Dawley rats [1] (nasal, 2%, 20 uL/nare, vehicle distilled water, an hour after administration, FIG. 5) is reported as “no significant difference”.

In the case of `C(=C\c1ccccc1)/CN1CCN(C(c2ccccc2)c2ccccc2)CC1` [cinnarizine], the “effect on mean arterial blood pressure compared to vehicle treated group” value in the data set with male Sprague-Dawley rats [2] is recorded as “Only the nifedipine group at 45 minutes was statistically significantly different”. Besides, in the data set with male Sprague-Dawley rats [1] (rat, in vivo), the “total distance traveled, compared to no treatment group” value was “statistically significant difference” and the “total distance traveled, drug treated groups compared to vehicle treated group” value is recorded as “no significant difference”.

`COc1ccc([C@@H]2Sc3ccccc3N(CCN(C)C)C(=O)[C@@H]2OC(C)=O)cc1` [diltiazem]: the “total distance traveled, drug treated groups compared to vehicle treated group” value with male Sprague-Dawley rats [1] (rat, in vivo) was “no significant difference”.

The values above are taken from patent US20050191245A1, “Nasal administration of calcium channel, blockers for treatment of hypertension and other cardiovascular disorders” (priority 2004, published 2005).
